Measured values reported in patent publication US10093973B2, “Polymerase compositions and methods” (LIFE TECHNOLOGIES CORPORATION, priority 2009, dated 2018).

Assays:
Assay type in all cases: biochemical
[1] = system: 5′-[32P]-labeled templates or 5′-TAMRA-labeled templates; experiment: Photostability assay (primer extension after 405 nm excitation radiation); details: after 30 seconds of exposure at 50 W/cm2, 405 nm
Source text: The photostability of an exemplary reference polymerase comprising a His-tagged version of Phi-29 polymerase (“HP1; see, e.g., U.S. Provisional Application No. 61/184,770, filed Jun. 5, 2009 for disclosure of HP1 sequence and purification) comprising the amino acid sequence of SEQ ID NO: 20, and an exemplary modified polymerase comprising the amino acid sequence of SEQ ID NO: 19 and further comprising the amino acid substitution D175A were characterized by measuring the amount of primer extension observed in each sample prior to and following exposure to excitation radiation at 405 nm Reactions (100 μL) containing 50 mM Tris, pH 7.5, 50 mM NaCl, 1 mM DTT, 2 mM MnCl2, 0.3% BSA, 10-200 nM polymerase and 100 nM nanoparticles (or premade polymerase-nanoparticle conjugates; see, e.g., U.S. Provisional Application No. 61/184,770 filed Jun. 5, 2009), and 100 nM 5′-[^32P]-labeled templates or 5′-TAMRA-labeled templates were prepared with and without the Oxygen Scavenging System (OSS). […] Polymerase activity was quantified as the % of extended primer (as compared to the total starting amount of primer), as measured by densitometric analysis. Phototoxicity is quantified by measuring the percent decrease in polymerase activity that occurs when samples are illuminated compared to non-illuminated samples. The photostability is quantified by subtracting the observed photosensitivity from 100.

[2] = system: ωdN4P and extendible AF546 primer:template duplex; experiment: Stopped-flow tpol measurement of Example 8; details: modified versus reference polymerase, ωdN4P 14 μM
Method: In this example, the tpol values of an exemplary modified polymerase comprising the amino acid of SEQ ID NO: 8 and was measured and compared to the tpol value of an exemplary reference polymerase comprising the amino acid sequence of SEQ ID NO: 20. These kinetic parameters were evaluated using a stopped-flow assay wherein a mixture comprising an extendible dye-labeled primer:template duplex and test polymerase was mixed with a solution comprising terminally-labeled nucleotide tetraphosphates or terminally-labeled nucleotide hexaphosphates. These terminally-labeled nucleotides comprise terminal-phosphate-labeled nucleotides having an alkyl linker with a functional amine group attached to the dye. The fluorescence of the resulting mixture was monitored over time. Unless noted otherwise, all concentrations refer to the initial concentrations prior to mixing. […]
Each primer-template duplex (200 nM) was preincubated with test polymerase (660 nM) and to form an E.DNA binary complex. This binary complex was mixed with the cognate omega-labeled nucleoside tetraphosphate (ωdN4P; 14 μM) in a stopped-flow experiment, and the fluorescence at both 546 nm and 647 nm was monitored following mixing. The averaged stopped-flow fluorescence traces were fitted with the double exponential function of Equation (2) to extrapolate the tpol value of the test polymerase: […]

[3] = system: ωdN4P and non-extendible AF546 primer:template duplex; experiment: Stopped-flow t−1 measurement of Example 7; details: modified versus reference polymerase, ωdN4P 14 μM
Method: In this example, the t−1 values of an exemplary modified polymerase comprising the amino acid of SEQ ID NO: 8 and an exemplary reference polymerase comprising the amino acid sequence of SEQ ID NO: 20 were measured and compared. These kinetic parameters were evaluated using an assay system wherein mixtures comprising a test polymerase and a primer:template duplex were mixed in a stopped-flow assay with nucleotides. To measure t−1, the primer used to form the primer:template duplex was a non-extendible primer including a dideoxynucleotide at its 3′ end, and the template was a synthetic DNA template comprising a donor Alexa Fluor 546 moiety at its 5′ end. […] The ternary complex was mixed with unlabeled nucleotides in a stopped-flow experiment, and the resulting fluorescence was monitored as described below. […]
Preincubated mixtures comprising 200 nM of a primer:templex duplex, 660 nM of test polymerase, and 14 μM of ωdN4P were prepared and then mixed with a solution comprising the unlabeled cognate nucleotide (50 μM) in a stopped-flow apparatus. The fluorescence at both 546 nm and 647 nm was monitored following mixing. The averaged stopped-flow fluorescence traces were fitted with a single exponential function having the form of Equation (1) to extrapolate the t−1 value of the test polymerase.

| Substance | % activity retained [1] | estimated tpol values [2] | estimated t−1 values [3] |
| --- | --- | --- | --- |
| HP1: Phi-29 polymerase lacking exonuclease activity with N-terminal His-tag, linker, D12A and D66A mutations [reference compound] | less than 40% |  |  |
| SEQ ID NO: 1: exemplary polymerase of the bacteriophage Phi-29 [reference compound] |  | comparable | comparable |
